Measurements published in the supplement of paper PMC10627819.

Legend:
Settings in all cases: main component drawn
S. aureus DSM 20231 [1] = test: fitness (endpoint OD595 vs no drug) (fraction); higher = more growth
Outline: (§1)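 Growth medium was TSB, LB Lennox or CY, and plates were kept at 37 °C. Inoculation was at OD595 0.01 in 384-well plates, at 30 µl per well or 55 µl for S. pneumoniae. OD595 was monitored every 30 min for 14 h and background-subtracted using the first reading. Fitness is the optical density on entering stationary phase divided by the robust mean of no-drug controls, with values capped at 1.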

S. aureus Newman [2] = test: as above
Outline: as §1

B. subtilis 168 = test: Bliss interaction score (quartile over a dose matrix) (fitness difference); higher = more antagonism (negative = synergy)
Outline: (§2)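 Each OD595 reading at entry into stationary phase was scaled to the robust mean of the untreated wells on its plate, with a ceiling of 1. These ratios define fitness, and single-drug fitness was inferred from combinations. The Bliss score compares observed fitness with the product-based expectation and is reported as quartiles across all replicate types, technical, biological and donor/recipient.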

S. aureus DSM 20231 [3] = test: as above
Outline: as §2

S. aureus Newman [4] = test: as above
Outline: as §2

S. pneumoniae D39V = test: as above
Outline: as §2
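Throughout, for Bliss interaction score (quartile over a dose matrix): first quartile when negative (synergy) and third quartile when positive (antagonism).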
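Throughout, for fitness (endpoint OD595 vs no drug): OD595 on entry to stationary phase over no-drug wells; at most 1.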

COc1cccc2c1C(=O)c1c(O)c3c(c(O)c1C2=O)C[C@@](O)(C(=O)CO)C[C@@H]3O[C@H]1C[C@H](N)[C@H](O)[C@H](C)O1 [Doxorubicin] + CCCCCCCCCC(=O)N[C@@H]1[C@H]([C@@H]([C@H](O[C@H]1OC2=C3C=C4C=C2OC5=C(C=C(C=C5)[C@H]([C@H]6C(=O)N[C@@H](C7=C(C(=CC(=C7)O)OC8[C@H]([C@H]([C@@H]([C@H](O8)CO)O)O)O)C9=C(C=CC(=C9)[C@H](C(=O)N6)NC(=O)[C@@H]4NC(=O)[C@@H]1C2=CC(=CC(=C2)OC2=C(C=CC(=C2)[C@H](C(=O)N[C@H](CC2=CC(=C(O3)C=C2)Cl)C(=O)N1)N)O)O)O)C(=O)O)O[C@H]1[C@@H]([C@H]([C@@H]([C@H](O1)CO)O)O)NC(=O)C)Cl)CO)O)O [Teicoplanin]
fitness
Settings	first compound 0.625 µg/mL	first compound 1.25 µg/mL	first compound 2.5 µg/mL
S. aureus DSM 20231 [1], partner 0.1562 µg/mL	0.889	0.885	0.922
S. aureus DSM 20231 [1], partner 0.3125 µg/mL	0.979	0.965	0.939
S. aureus DSM 20231 [1], partner 0.625 µg/mL	≥ 1	≥ 1	0.978
S. aureus Newman [2], partner 0.1562 µg/mL	0.886	0.809	0.728
S. aureus Newman [2], partner 0.3125 µg/mL	0.872	0.808	0.713
S. aureus Newman [2], partner 0.625 µg/mL	0.841	0.791	0.677

fitness, S. aureus Newman [2], one replicate
Settings	first compound 0.625 µg/mL	first compound 1.25 µg/mL	first compound 2.5 µg/mL
partner 0.62 µg/mL	0.713	0.736	0.716
partner 1.24 µg/mL	0.666	0.613	0.622
partner 2.48 µg/mL	0.339	0.283	0.237

Settings	Bliss interaction score
B. subtilis 168	0.0931
S. aureus DSM 20231 [3]	0.0684
S. aureus Newman [4]	0.0378
S. pneumoniae D39V	0.102

COc1ccc(C[C@H](N)C(=O)N[C@H]2[C@@H](O)[C@H](n3cnc4c(N(C)C)ncnc43)O[C@@H]2CO)cc1 [Puromycin] + CCCCCCCCCC(=O)N[C@@H]1[C@H]([C@@H]([C@H](O[C@H]1OC2=C3C=C4C=C2OC5=C(C=C(C=C5)[C@H]([C@H]6C(=O)N[C@@H](C7=C(C(=CC(=C7)O)OC8[C@H]([C@H]([C@@H]([C@H](O8)CO)O)O)O)C9=C(C=CC(=C9)[C@H](C(=O)N6)NC(=O)[C@@H]4NC(=O)[C@@H]1C2=CC(=CC(=C2)OC2=C(C=CC(=C2)[C@H](C(=O)N[C@H](CC2=CC(=C(O3)C=C2)Cl)C(=O)N1)N)O)O)O)C(=O)O)O[C@H]1[C@@H]([C@H]([C@@H]([C@H](O1)CO)O)O)NC(=O)C)Cl)CO)O)O [Teicoplanin]
fitness
Settings	first compound 0.39 µg/mL	first compound 0.78 µg/mL	first compound 1.56 µg/mL
S. aureus DSM 20231 [1], partner 0.1562 µg/mL	0.895	0.997	0.982
S. aureus DSM 20231 [1], partner 0.3125 µg/mL	≥ 1	≥ 1	1
S. aureus DSM 20231 [1], partner 0.625 µg/mL	≥ 1	≥ 1	≥ 1
S. aureus Newman [2], partner 0.1562 µg/mL	≥ 1	≥ 1	≥ 1
S. aureus Newman [2], partner 0.3125 µg/mL	≥ 1	≥ 1	≥ 1
S. aureus Newman [2], partner 0.625 µg/mL	≥ 1	0.888	0.906

fitness, one replicate
Settings	partner 0.1562 µg/mL	partner 0.3125 µg/mL	partner 0.62 µg/mL	partner 0.625 µg/mL	partner 1.24 µg/mL	partner 2.48 µg/mL
S. aureus DSM 20231 [1], first compound 3.12 µg/mL	0.94	≥ 1	–	≥ 1	–	–
S. aureus DSM 20231 [1], first compound 6.24 µg/mL	0.664	0.579	–	0.504	–	–
S. aureus Newman [2], first compound 0.39 µg/mL	–	–	0.761	–	0.754	0.457
S. aureus Newman [2], first compound 0.78 µg/mL	–	–	0.815	–	0.755	0.454
S. aureus Newman [2], first compound 1.56 µg/mL	–	–	0.79	–	0.76	0.403

Settings	Bliss interaction score
B. subtilis 168	0.0835
S. aureus DSM 20231 [3]	-0.0344
S. aureus Newman [4]	0.0617
S. pneumoniae D39V	0.083

CO/N=C(\C(=O)N[C@@H]1C(=O)N2C(C(=O)O)=C(COC(C)=O)CS[C@H]12)c1csc(N)n1 [Cefotaxime] + CCCCCCCCCC(=O)N[C@@H]1[C@H]([C@@H]([C@H](O[C@H]1OC2=C3C=C4C=C2OC5=C(C=C(C=C5)[C@H]([C@H]6C(=O)N[C@@H](C7=C(C(=CC(=C7)O)OC8[C@H]([C@H]([C@@H]([C@H](O8)CO)O)O)O)C9=C(C=CC(=C9)[C@H](C(=O)N6)NC(=O)[C@@H]4NC(=O)[C@@H]1C2=CC(=CC(=C2)OC2=C(C=CC(=C2)[C@H](C(=O)N[C@H](CC2=CC(=C(O3)C=C2)Cl)C(=O)N1)N)O)O)O)C(=O)O)O[C@H]1[C@@H]([C@H]([C@@H]([C@H](O1)CO)O)O)NC(=O)C)Cl)CO)O)O [Teicoplanin]
fitness, one replicate
Settings	partner 0.1562 µg/mL	partner 0.3125 µg/mL	partner 0.62 µg/mL	partner 0.625 µg/mL	partner 1.24 µg/mL	partner 2.48 µg/mL
S. aureus DSM 20231 [1], first compound 0.039 µg/mL	0.672	0.754	–	0.786	–	–
S. aureus Newman [2], first compound 0.039 µg/mL	–	–	0.563	–	0.614	0.405
S. aureus Newman [2], first compound 0.078 µg/mL	–	–	0.592	–	0.531	0.203
S. aureus Newman [2], first compound 0.156 µg/mL	–	–	0.459	–	0.487	0.094
S. aureus Newman [2], first compound 0.312 µg/mL	–	–	0.453	–	0.436	0.0757
S. aureus Newman [2], first compound 0.625 µg/mL	0.0055	0.0074	–	0.152	–	–
S. aureus Newman [2], first compound 1.25 µg/mL	0.0152	0.0026	–	0.0074	–	–
S. aureus Newman [2], first compound 2.5 µg/mL	0.0359	0.0126	–	0.0149	–	–

fitness
Settings	first compound 0.078 µg/mL	first compound 0.156 µg/mL	first compound 0.312 µg/mL
S. aureus DSM 20231 [1], partner 0.1562 µg/mL	0.791	0.705	0.667
S. aureus DSM 20231 [1], partner 0.3125 µg/mL	0.828	0.775	0.665
S. aureus DSM 20231 [1], partner 0.625 µg/mL	0.826	0.716	0.663
S. aureus Newman [2], partner 0.1562 µg/mL	0.684	0.52	0.343
S. aureus Newman [2], partner 0.3125 µg/mL	0.672	0.498	0.356
S. aureus Newman [2], partner 0.625 µg/mL	0.574	0.46	0.315

Settings	Bliss interaction score
B. subtilis 168	-0.0867
S. aureus DSM 20231 [3]	-0.0684
S. aureus Newman [4]	-0.0611
S. pneumoniae D39V	-0.0543
